Assay results taken from ChEMBL document CHEMBL1155537, “Looking for a 5-HT7 radiotracer for positron emission tomography” (Bioorg Med Chem Lett, 2010).

Biological target: 5-hydroxytryptamine receptor 7 (Homo sapiens) (UniProt P34969)
Assay: Binding affinity to human 5HT7 receptor expressed in CHO cells
Format: cell-based

Chain of 5-hydroxytryptamine receptor 7 (Homo sapiens) (P34969 whole entry): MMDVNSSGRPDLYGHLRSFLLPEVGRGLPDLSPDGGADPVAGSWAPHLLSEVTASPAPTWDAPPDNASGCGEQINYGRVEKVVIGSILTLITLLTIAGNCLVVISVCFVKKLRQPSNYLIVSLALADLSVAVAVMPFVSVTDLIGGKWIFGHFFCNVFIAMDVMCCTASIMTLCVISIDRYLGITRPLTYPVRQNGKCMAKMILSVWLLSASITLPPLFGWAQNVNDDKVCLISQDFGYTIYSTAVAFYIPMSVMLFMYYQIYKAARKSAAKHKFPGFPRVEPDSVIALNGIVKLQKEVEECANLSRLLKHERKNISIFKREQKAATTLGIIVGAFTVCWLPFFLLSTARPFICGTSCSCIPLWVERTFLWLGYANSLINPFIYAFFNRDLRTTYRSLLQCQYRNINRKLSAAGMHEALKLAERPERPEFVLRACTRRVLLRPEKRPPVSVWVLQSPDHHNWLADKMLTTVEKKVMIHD

| pKb | Structure (SMILES) |
| --- | --- |
| 7.26 | COc1ccccc1N1CCN(CCCNS(=O)(=O)c2ccc(F)cc2)CC1 |
| 7.1 | O=C(OC1CCN(CC[C@H]2CCCN2S(=O)(=O)c2ccccc2)CC1)c1ccc(F)cc1 |
